system: HMG-CoA reductase; test: HMG-CoA reductase inhibition assay (in vitro protocol of J. Med. Chem., 28, 347-358); format: biochemical; settings: relative to compactin arbitrarily assigned a value of 100; IC50 compared with that of compactin determined simultaneously; tested as sodium salt of dihydroxy acid form; enzyme solubilized from rat liver microsomes
Description: The intrinsic HMG-CoA reductase inhibition activity of the claimed compounds is measured in the in vitro protocol published in J. Med. Chem., 28, p. 347-358 (1985) and described below: Male Holtzman Sprague-Dawley rats (225-250 g) were kept on reversed lighting and fed Purina rat chow containing 3% cholestyramine for 7 days preceding their sacrifice by CO2 asphyxiation. Livers were removed 6 hours into the dark cycle and used immediately to prepare microsomes. HMG-CoA reductase was solubilized from the freshly prepared microsomes by the method of Heller and Shrewsbury [J. Biol. Chem., 1976, 251, 3815] and purified through the second ammonium sulfate precipitation step as described by Kleinsek et al. [Proc. Natl. Acad. Sci. USA, 1977, 74, 1431]. […] The enzyme preparation was stored at -80° C. The assay is essentially the procedure of Shefer et al. [J. Lipid Res., 1972, 13, 402]. The complete assay medium contained the following in a total volume of 0.8 ml: phosphate buffer, pH 7.2, 100 mM; MgCl2, 3 mM; NADP, 3 mM; glucose-6-phosphate, 10 mM; glucose-6-phosphate dehydro-genase, 3 enzyme units; reduced glutathione, 50 mM; HMG-CoA (qlutaryl-3-^14 C, New England Nuclear), 0.2 mM (0.1 μCi); and partially purified enzyme stock solution, 100 μL. […] After a 40-minute incubation at 37° C. with shaking and exposure to air, the reaction was stopped by the addition of 0.4 mL of 8N HCl. After an additional 30-minute incubation period at 37° C. to ensure the complete lactonization of mevalonic acid to mevalonolactone, 0.2 ml of the mixture was added to an 0.5×5.0 cm column containing 100-200 mesh Bio-Rex 5, chloride form (Bio-Rad), wetted with distilled water, as described by Alberts et al. [Proc. Natl. Acad. Sci. U.S.A., 1980, 77, 3967]. The unreacted [^14 C]HMG-CoA was absorbed on the resin and the [^14 C]mevalonolactone was eluted with distilled water (2×1 ml) directly into 7-ml scintillation vials. Five milliliters of Aquasol-2 (New England Nuclear) was added to each vial, and radioactivity was measured in a Packard Tri Carb Prias scintillation counter. IC50 values were determined by plotting percentage inhibition against test compound concentration and fitting a straight line to the resulting data by using the least-squares method.

Sequence of HMG-CoA reductase (P51639 425-887 limits assumed): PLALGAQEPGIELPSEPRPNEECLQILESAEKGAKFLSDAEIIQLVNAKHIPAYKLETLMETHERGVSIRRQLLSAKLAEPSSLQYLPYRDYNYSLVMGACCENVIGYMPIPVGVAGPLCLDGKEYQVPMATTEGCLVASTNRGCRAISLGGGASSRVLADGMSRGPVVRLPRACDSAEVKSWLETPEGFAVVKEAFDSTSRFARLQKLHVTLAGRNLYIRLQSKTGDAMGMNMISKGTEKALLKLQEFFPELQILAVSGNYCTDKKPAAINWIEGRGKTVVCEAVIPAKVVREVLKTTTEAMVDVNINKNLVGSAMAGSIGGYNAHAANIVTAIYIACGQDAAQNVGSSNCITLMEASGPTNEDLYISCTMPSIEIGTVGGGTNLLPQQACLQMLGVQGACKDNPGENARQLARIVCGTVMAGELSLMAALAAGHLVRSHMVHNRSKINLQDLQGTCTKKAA

Compound	Relative Potency
6(R)-[2-[8(S)-(2,2-Dimethylbutyryloxy)-6(R)-carboxy-2(S)-methyl-1,2,6,7,8,8a(R)-hexahydronaphthyl-1(S)]ethyl]-4(R)-hydroxy-3,4,5,6-tetrahydro-2H-pyran-2-one [db -- db R CO2 H 1,1-dimethylpropyl]	94
6(R)-[2-[8(S)-(2,2-Dimethylbutyryloxy)-2(S)-methyl-6(S)-(N,N-dimethyl)aminocarbonyl-1,2,3,4,4a(S),5,6,7,8,8a(S)-decahydronaphthyl-1(S)]-ethyl]-4(R)-hydroxy-3,4,5,6-tetrahydro-2H-pyran-2-one [-- -- -- S CONMe2 1,1-dimethylpropyl]	75
6(R)-[2-[8(S)-(2,2-Dimethylbutyryloxy)-2(S)-methyl-6(S)-carboxy-1,2,3,4,4a(S),5,6,7,8,8a(S)-decahydronaphthyl-1(S)]-ethyl]-4(R)-hydroxy-3,4,5,6-tetrahydro-2H-pyran-2-one [-- -- -- S CO2 H 1,1-dimethylpropyl]	79
6(R)-[2-[8(S)-(2,2-Dimethylbutyryloxy)-6(R)-(2,2-dimethylbutyryloxymethyl)-2(S)-methyl-1,2,3,4,6,7,8,8a(R)-octahydronaphthyl-1(S)]-ethyl]-4(R)-hydroxy-3,4,5,6-tetrahydro-2H-pyran-2-one	33
6(R)-[2-[8(S)-(2,2-dimethylbutyryloxy)-2(S)-methyl-6(R)-(1-hydroxyethyl)-1,2,3,4,4a(S),5,6,7,8,8a(S)-decahydronaphthyl-1(S)]ethyl]-4(R)-hydroxy-3,4,5,6-tetrahydro-2H-pyran-2-one [-- -- -- R CHOHCH3 (ISOMER B) 1,1-dimethylpropyl]	104
6(R)-[2-[8(S)-(2,2-dimethylbutyryloxy)-2(S)-methyl-6(R)-(1-hydroxyethyl)-1,2,3,4,4a(S),5,6,7,8,8a(S)-decahydronaphthyl-1(S)]ethyl]-4(R)-hydroxy-3,4,5,6-tetrahydro-2H-pyran-2-one [-- -- -- R CHOHCH3 (ISOMER A) 1,1-dimethylpropyl]	111
6(R)-[2-[8(S)-(2,2-Dimethylbutyryloxy)-6(S)-(N,N-dimethyl)aminocarbonyl-2(S)methyl-1,2,6,7,8,8a(R)-hexahydronaphthyl-1(S)]ethyl]-4(R)-hydroxy-3,4,5,6-tetrahydro-2H-pyran-2-one [db -- db S CONMe2 1,1-dimethylpropyl]	82
6(R)-[2-[8(S)-(2,2-Dimethylbutyryloxy)-6(R)-hydroxymethyl-2(S)methyl-1,2,3,4,6,7,8,8a(R)-octahydronaphthyl-1(S)]ethyl]-4(R)-hydroxy-3,4,5,6-tetrahydro-2H-pyran-2-one [db -- -- R CH2 OH 1,1-dimethylpropyl]	213
6(R)-[2-[8(S)-(2,2-Dimethylbutyryloxy)-2(S)-methyl-6(S)-ethoxycarbonyl-1,2,3,4,4a(S),5,6,7,8,8a(S)-decahydronaphthyl-1(S)]ethyl]-4(R)-hydroxy-3,4,5,6-tetrahydro-2H-pyran-2-one [-- -- -- S CO2 Et 1,1-dimethylpropyl]	125
6(R)-[2-[8(S)-(2,2-Dimethylbutyryloxy)-2(S)-methyl-6(S)-(α-hydroxybenzyl)-1,2,3,4,4a(S),5,6,7,8,8a-(S)-decahydronaphthyl-1(S)]ethyl]-4(R)-hydroxy-3,4,5,6-tetrahydro-2H-pyran-2-one [-- -- -- S CHOHPH 1,1-dimethylpropyl]	220
6(R)-[2-[8(S)-(2,2-Dimethylbutyryloxy)-6(S)-carboxy-2(S)-methyl-1,2,6,7,8,8a(R)-hexahydronaphthyl-1(S)]ethyl]-4(R)-hydroxy-3,4,5,6-tetrahydro-2H-pyran-2-one [db -- db S CO2 H 1,1-dimethylpropyl]	99
6(R)-[2-[8(S)-(2,2-Dimethylbutyryloxy)-6(S)-hydroxymethyl-2(S)-methyl-1,2,6,7,8,8a(R)-hexahydronaphthyl-1(S)]ethyl]-4(R)-hydroxy-3,4,5,6-tetrahydro-2H-pyran-2-one [db -- db S CH2 OH 1,1-dimethylpropyl]	189
6(R)-[2-[8(S)-(2,2-Dimethylbutyryloxy)-2(S)-methyl-6(S)-aminocarbonyl-1,2,3,4,4a(S),5,6,7,8,8a(S)-decahydronaphthyl-1(S)]ethyl]-4(R)-hydroxy-3,4,5,6- tetrahydro-2H-pyran-2-one [-- -- -- S CONH2 1,1-dimethylpropyl]	107
6(R)-[2-[8(S)-(2,2-Dimethylbutyryloxy)-2(S)-methyl-6(S)-isopropoxycarbonyl-1,2,3,4,4a(S),5,6,7,8,8a(S)-decahydronaphthyl-1(S)]ethyl]-4(R)-hydroxy-3,4,5,6-tetrahydro-2H-pyran-2-one [-- -- -- S CO2-i-Pr 1,1-dimethylpropyl]	80

Other lines, results leading:

Relative Potency	Compound
33	6(R)-[2-[8(S)-(Cyclohexylcarbonyloxy)-6(S)-hydroxymethyl-2(S)-methyl-1,2,3,4,4a(S),5,6,7,8,8a(S)-decahydronaphthyl-1(S)]ethyl]-4(R)-hydroxy-3,4,5,6-tetrahydro-2H-pyran-2-one [-- -- -- S CH2 OH cyclohexyl]
131	6(R)-[2-[8(S)-(2,2-dimethylbutyryloxy)-2(S)-methyl-6(S)-(1-hydroxyethyl)-1,2,3,4,4a,(S),5,6,7,8,8a(R)-decahydronaphthyl-1(S)]ethyl]-4(R)-hydroxy-3,4,5,6-tetrahydro-2H-pyran-2-one [-- -- -- S CHOHCH3 (ISOMER A) 1,1-dimethylpropyl]
86	6(R)-[2-[8(S)-(2,2-dimethylbutyryloxy)-2(S)-methyl-6(S)-hydroxymethyl-1,2,3,4,4a(S),5,6,7,8,8a(S)-decahydronaphthyl-1(S)]ethyl]-4(R)-hydroxy-3,4,5,6- tetrahydro-2H-pyran-2-one [-- -- -- S CH2 OH 1,1-dimethylpropyl]
47	6(R)-[2-[8(S)-(2-methylbutyryloxy)-2(S)-methyl-6(R)-(hydroxymethyl)-1,2,6,7,8,8a(R)-hexahydronaphthyl-1(S)]ethyl]-4(R)-hydroxy-3,4,5,6-tetrahydro-2H- pyran-2-one [db -- db R CH2 OH sec-butyl]
65	6(R)-[2-[8(S)-(2,2-dimethylbutyryloxy)-6(S)-(N,N-diethyl)aminocarbonyl-2(S)-methyl-1,2,6,7,8,8a(R)-hexahydronaphthyl-1(S)]ethyl]-4(R)-hydroxy-3,4,5,6-tetrahydro-2H-pyran-2-one [db -- db S CONEt2 1,1-dimethylpropyl]
113	6(R)-[2-[8(S)-(2,2-dimethylbutyryloxy)-2(S)-methyl-6(S)-(1-hydroxyethyl)-1,2,3,4,4a,(S),5,6,7,8,8a(R)-decahydronaphthyl-1(S)]ethyl]-4(R)-hydroxy-3,4,5,6-tetrahydro-2H-pyran-2-one [-- -- -- S CHOHCH3 (ISOMER B) 1,1-dimethylpropyl]
100	6(R)-[2-[8(S)-(2,2-dimethylbutyryloxy)-2(S)-methyl-6(S)-(2,2-dimethylbutyryloxymethyl)-1,2,3,4,4a(S),5,6,7,8,8a(S)-decahydronaphthyl-1(S)]ethyl]-4(R)-hydroxy-3,4,5,6-tetrahydro-2H-pyran-2-one
26	6(R)-[2-[8(S)-(2-methylbutyryloxy)-6(S)-carboxy-2(S)-methyl-1,2,6,7,8,8a(R)-hexahydronaphthyl-1(S)]ethyl]-4(R)-hydroxy-3,4,5,6-tetrahydro-2H-pyran-2- one [db -- db S CO2 H sec-butyl]

system: not listed separately; test: Stability of the free dihydroxy acid on standing; format: physicochemical; settings: dihydroxy acid can be maintained by increasing the pH above 7.0
Description: The sodium salt of the compound II from Example 64 is dissolved in 2 ml of ethanol-water (1:1; v:v) and added to 10 ml of 1N hydrochloric acid from which the dihydroxy acid is extracted with ethyl acetate. The organic extract is washed once with water, dried (Na2 SO4), and evaporated in vacuo with a bath temperature not exceeding 30° C. […] The dihydroxy acid can be maintained by increasing the pH above 7.0.

Compound	reversion of dihydroxy acid to parent lactone
CCC(C)(C)C(=O)O[C@H]1C[C@@H](CO)C[C@@H]2CC[C@H](C)[C@H](CC[C@@H](O)C[C@@H](O)CC(=O)O)[C@H]21 [Example 70]	slowly reverts to the corresponding,parent lactone on standing

— USRE36520E, “HMG-CoA reductase inhibitors” (Merck & Co., Inc., priority 1998, dated 2000)
